The values below come from patent US10251865B2, “Method of activating regulatory T cells with alpha-2B adrenergic receptor agonists” (Allergan, Inc., priority 2010, dated 2019).

For experiment [1], the system named is PLP-induced model of relapsing remitting EAE. The experiment can be described thus: Proteolipid-induced relapsing-remitting EAE in mice: clinical score and pain. Format: in vivo. From the text: The mouse model of experimental autoimmune encephalomyelitis (EAE) has been used extensively to understand the mechanisms underlying the immunopathogenesis of MS. […] Components of the immune system including T cells, macrophage, and antibodies are important contributors to myelin destruction in EAE mice. Further, inflammation also gives rise to multifocal regions demyelination culminating in clinical signs of neurologic dysfunction that include loss of tail tone, abnormal gait and partial-to-complete hind-limb paralysis. PLP-induced EAE model offers the ability to simultaneously investigate the pathogenic mechanisms of CNS inflammation and demyelination and MS-associated pain, a multi-targeted concept that we have optimized here at Allergan. Using sterile technique proteolipid protein myelin peptide (PLP) (139-159: […]) is mixed 1:1 with incomplete Freund's adjuvant (IFA) (Final concentration of 2 mg/ml PLP). 8-10 week old Female SJL mice (Taconic) are injected subcutaneously with 100 μl PLP/IFA (200 μg PLP/injection) on both the right and left hind-flank (day 0) using a 26G needle. Mice immunized using this protocol experience a relapsing-remitting clinical course with episodes of motor impairment interspersed with periods of remission/clinical improvement. Furthermore, these mice display a robust pain phenotype that is most pronounced during periods of clinical remission.
Using this protocol, the onset of PLP-induced EAE in SJL mice occurs at an incidence of (˜90-100%) and is generally apparent by ˜12 days post-immunization, reaching peak disease by 14-21 days. PLP-EAE mice show physical symptoms of neurologic impairment, progressing from partial loss of tail tonicity to partial-to-complete hind-limb paralysis. Up to 75% of the mice will experience a relapsing-remitting clinical course with periods of remission flanked by episodes of motor impairment (hind-limb weakness and paralysis). Histologically, mice display extensive inflammation within white matter tracts (areas containing myelinated axons) of the brain and spinal cord, progressive infiltration and accumulation of inflammatory cells, demyelination and axonal loss. Mice with severe EAE show extensive cellular infiltrates, widespread foci of demyelination. PLP-immunized mice typically display the most severe clinical disease during the first episode of neurologic impairment (days 14-21). […]
Mice were routinely visually scored for behavioral abnormalities on a scale from 0-5; 0-no abnormality, 1-partial loss of tail tonicity (partial limp tail), 2-loss of tail tonicity and hind-limb weakness 3-unsteady gait and partial hind-limb paralysis, 4-complete hind-limb paralysis and 5-moribund or dead. […] Allodynia was measured by the Von Frey hairs method as described earlier. […]

The test system of experiment [2] is goblet cells and T cells in the conjunctiva. The experiment can be described thus: Dry eye desiccating stress in mice, therapeutic mode, conjunctiva histology. Format: in vivo. As to conditions: 3 mg/kg/day via osmotic minipump, mice previously exposed to blower, comparable to Cyclosporine A, FIG. 12. An excerpt: C57BL/6 (C57BL/6NTac) and B6.Cg/NTac-Foxn1nuNE9 were purchased from Taconic, Inc. (Germantown, N.Y.). Mice were used at 6-10 weeks of age. Animal studies approval was obtained from the Allergan Animal Care and Use Committee. All studies adhered to the Association for Research in Vision and Ophthalmology statement for the Use of Animals in Ophthalmic and Vision Research. As described in the literature dry eye was induced by treating mice with subcutaneous injections of scopolamine hydrobromide (0.5 mg/0.2 ml; Sigma-Aldrich, St. Louis, Mo.) three times a day alternating between the left and right flanks (Neiderkorn et al, 2006). Mice were placed in a cage containing perforated plastic screens on each side of the cage to permit airflow from fans (one fan on each side of the cage) for 16 hr/day in a hood (AirClean Systems, Raleigh, N.C.). Room humidity was kept below 40%. Desiccating stress (DS) was induced for 10 consecutive days. Spleens and cervical lymph nodes (CLN) were collected from mice subjected to DS and NS, and one donor-equivalent of either spleen or CLN CD4+ cells was transferred i.p. to syngeneic nude mice. One splenic equivalent of T cells was equal to 5×10^7 cells. Three days later samples were collected for analysis. For tear collection, 1.5 μL of PBS was placed on each eye, and then 1 μL of tear was collected from both eyes and placed in 8 μL of cytokine assay buffer (Beadlyte; Millipore, Billerica, Mass.). Buffer and tear fluid were collected by capillary action using a 1 μL volume glass capillary tube (Drummond Scientific, Broomhall, Pa.) that was placed in the tear meniscus of the lateral canthus. Samples were frozen at −80° C. until the time of assay. Histological analysis was done by staining […] samples with antibody to CD4 and H&E staining to quantify goblet cells and T cells in the conjunctiva. To test the compounds in a therapeutic mode, the animals were exposed to the desiccating stress for two weeks and then allowed to rest for 7 days in regular housing cages. The animals were then re-exposed to desiccating stress for an additional 7 days to mimic relapsing form of chronic dry eye disease. Drug treatment with Compound B was started 2 days before re-exposure to desiccating stress. In both the studies Compound B was dosed at 3 mg/kg/day. Adoptive transfer, tear cytokine analysis and histological analysis were performed as described above.

`CCC1=CC(Cc2c[nH]cn2)CCC1` (centres unmarked) [Compound B]: the pain result in experiment [1] (mice immunized with proteolipid protein, 3 mg/kg/day by osmotic minipump, FIG. 3) was “reduced”. Further, the “symptoms of MS (clinical course of disease)” value in experiment [1] (treatment during the development of clinical disease, FIG. 4) is given as “significant effect on attenuating symptoms”. In addition, the “clinical score during relapses on days 14 (p<0.01) and 24” value in experiment [1] (treatment from days 7-10) is recorded as “reduced”. Also, in experiment [2], the “T cell infiltration into the conjunctiva” value is on record as “significantly prevented” and the goblet cell loss result is “significantly prevented”.

For the molecule `Clc1cccc(CNC2=NCCN2)c1Cl` [Compound C], in experiment [1] (TID oral dosing (3 mg/kg/day) from day 7-13, FIG. 6), the “clinical score compared to vehicle-treated mice from days 13-24” value is “significantly reduced”. For the same molecule, in experiment [2], the “T cell infiltration into the conjunctiva” value was “significantly reduced” and the goblet cell loss result is listed as “significantly reduced”.
